Columns and labels:
[1] = system: E. coli ATCC 25922; experiment: MIC, NCCLS broth microdilution assay; type: cell-based, Escherichia coli; conditions: E. coli ATCC 25922
[2] = system: E. faecalis ATCC 29212; experiment: MIC, NCCLS broth microdilution assay; type: cell-based, Enterococcus faecalis; conditions: E. faecalis ATCC 29212
[3] = system: C. albicans ATCC 38247; experiment: MIC, antifungal assay; type: cell-based, Candida albicans; conditions: C. albicans ATCC 38247
[4] = system: S. pneumoniae ATCC 49619; experiment: MIC, NCCLS broth microdilution assay; type: cell-based, Streptococcus pneumoniae; conditions: S. pneumoniae ATCC 49619
[5] = system: B. cereus ATCC 11778; experiment: MIC, NCCLS broth microdilution assay; type: cell-based, Bacillus cereus; conditions: B. cereus ATCC 11778
[6] = system: S. pneumoniae (ATCC 51422, PRSP); conditions: S. pneumoniae ATCC 51422, penicillin resistant strain (PRSP)
Description: (§1) In vitro biological activity data were collected for a variety of microorganisms, including Bacillus cereus (ATCC 11778), Staphylococcus aureus (ATCC 33591; ATCC 27660, a methicillin resistant strain (MRSA); ATCC 13709, a methicillin sensitive strain (MSSA)), Escherichia coli (ATCC 25922), Enterococcus faecalis (ATCC 29212), Streptococcus pneumoniae (ATCC 49619; ATCC 51422, a penicillin resistant strain (PRSP)), Enterococcus faecium (ATCC 51559, a vancomycin resistant strain (VRE)), and Staphylococcus epidermidis (ATCC 12228). Additionally, antifungal activity data were collected for Candida albicans (ATCC 38247).
(§2) Compounds according to this invention were screened for their in vitro activities against selected species of bacteria and fungi. The minimal inhibition concentration (MIC) of these compounds was determined using the National Committee for Clinical Laboratory Standards (NCCLS) broth microdilution assay in microtiter plates, as set forth in: (1) the guidelines of the National Committee for Clinical Laboratory Standards (NCCLS) Document M7-A4 (NCCLS, 1997); (2) the guidelines of the National Committee for Clinical Laboratory Standards (NCCLS) Document M11-A4 (NCCLS, 1997); and (3) the guidelines and reference method of the National Committee for Clinical Laboratory Standards (NCCLS) Document M27 -T (NCCLS, 1995). For antifungal assays, the method recommended in Murray, PR., 1995 Manual of Clinical Microbiology (ASM Press, Washington, D.C.), was employed.
(§3) (MIC values are keyed in the same manner as Table B.)

[7] = system: E. faecium (ATCC 51559, VRE); conditions: E. faecium ATCC 51559, vancomycin resistant strain (VRE)
Description: as §1, §2, §3

[8] = system: S. aureus ATCC 13709; experiment: MIC, NCCLS broth microdilution assay; type: cell-based, Staphylococcus aureus; conditions: S. aureus ATCC 13709, methicillin sensitive strain (MSSA)
[9] = system: S. aureus ATCC 33591; experiment: MIC, NCCLS broth microdilution assay; type: cell-based, Staphylococcus aureus; conditions: S. aureus ATCC 33591
[10] = system: S. epidermidis ATCC 12228; experiment: MIC, NCCLS broth microdilution assay; type: cell-based, Staphylococcus epidermidis
[11] = system: S. aureus ATCC 27660; experiment: MIC, NCCLS broth microdilution assay; type: cell-based, Staphylococcus aureus; conditions: S. aureus ATCC 27660, methicillin resistant strain (MRSA)

| SMILES | Minimum Inhibitory Concentration (MIC) [1] [µg/mL] | Minimum Inhibitory Concentration (MIC) [2] | Minimum Inhibitory Concentration (MIC) [3] | Minimum Inhibitory Concentration (MIC) [4] | Minimum Inhibitory Concentration (MIC) [5] | Minimum Inhibitory Concentration (MIC) [6] | Minimum Inhibitory Concentration (MIC) [7] | Minimum Inhibitory Concentration (MIC) [8] | Minimum Inhibitory Concentration (MIC) [9] | Minimum Inhibitory Concentration (MIC) [10] | Minimum Inhibitory Concentration (MIC) [11] |
| --- | --- | --- | --- | --- | --- | --- | --- | --- | --- | --- | --- |
| NCCCNc1snc(C(=O)Nc2ccc(-c3cc4ccccc4o3)cc2)c1Cl [Compound A-2] | >32 | +++ (MIC ≦ 4) | ++ (4 < MIC < 12) | + (12 ≦ MIC ≦ 32) | +++ (MIC ≦ 4) | + (12 ≦ MIC ≦ 32) | +++ (MIC ≦ 4) | +++ (MIC ≦ 4) | +++ (MIC ≦ 4) | +++ (MIC ≦ 4) | +++ (MIC ≦ 4) |
| NCCNc1snc(C(=O)Nc2ccc(-c3cc4ccccc4o3)cc2)c1Cl [Compound A-3] | >32 | +++ (MIC ≦ 4) | +++ (MIC ≦ 4) | + (12 ≦ MIC ≦ 32) | + (12 ≦ MIC ≦ 32) | + (12 ≦ MIC ≦ 32) | +++ (MIC ≦ 4) | +++ (MIC ≦ 4) | +++ (MIC ≦ 4) | +++ (MIC ≦ 4) | +++ (MIC ≦ 4) |
| CN(C)CCCNc1snc(C(=O)Nc2ccc(-c3cc4ccccc4o3)cc2)c1Cl [Compound A-7] | >32 | +++ (MIC ≦ 4) | ++ (4 < MIC < 12) | + (12 ≦ MIC ≦ 32) | +++ (MIC ≦ 4) | + (12 ≦ MIC ≦ 32) | +++ (MIC ≦ 4) | +++ (MIC ≦ 4) | +++ (MIC ≦ 4) | +++ (MIC ≦ 4) | +++ (MIC ≦ 4) |
| CN(C)CCCNc1ncccc1C(=O)Nc1ccc(-c2cc3ccccc3o2)cc1 [Compound A-11] | >32 | +++ (MIC ≦ 4) | +++ (MIC ≦ 4) | + (12 ≦ MIC ≦ 32) | +++ (MIC ≦ 4) | + (12 ≦ MIC ≦ 32) | +++ (MIC ≦ 4) | +++ (MIC ≦ 4) | +++ (MIC ≦ 4) | +++ (MIC ≦ 4) | +++ (MIC ≦ 4) |
| Cc1cc(NC(=O)c2nsc(NCCCN)c2Cl)ccc1-c1cc2ccccc2o1 [Compound A-34] | >32 | +++ (MIC ≦ 4) | +++ (MIC ≦ 4) | + (12 ≦ MIC ≦ 32) | +++ (MIC ≦ 4) | + (12 ≦ MIC ≦ 32) | +++ (MIC ≦ 4) | +++ (MIC ≦ 4) | +++ (MIC ≦ 4) | +++ (MIC ≦ 4) | +++ (MIC ≦ 4) |
| CN(C)CCCNc1ncccc1C(=O)Nc1ccc(-c2cc3ccccc3s2)cc1 [Compound A-50] | >32 | +++ (MIC ≦ 4) | +++ (MIC ≦ 4) | + (12 ≦ MIC ≦ 32) | +++ (MIC ≦ 4) |  |  | +++ (MIC ≦ 4) | +++ (MIC ≦ 4) | +++ (MIC ≦ 4) | +++ (MIC ≦ 4) |
| Cc1ccc2nc(-c3ccc(NC(=O)c4nsc(NCCCN)c4Cl)cc3)sc2c1 [Compound A-53] | >32 | +++ (MIC ≦ 4) | >32 µg/mL | >32 µg/mL | +++ (MIC ≦ 4) | + (12 ≦ MIC ≦ 32) | +++ (MIC ≦ 4) | +++ (MIC ≦ 4) | +++ (MIC ≦ 4) | +++ (MIC ≦ 4) | +++ (MIC ≦ 4) |
| NCCCCNc1snc(C(=O)Nc2ccc(-c3cc4ccccc4s3)nc2)c1Cl [Compound A-68] | >32 | +++ (MIC ≦ 4) | +++ (MIC ≦ 4) | >32 µg/mL | +++ (MIC ≦ 4) | >32 µg/mL | +++ (MIC ≦ 4) | +++ (MIC ≦ 4) | +++ (MIC ≦ 4) | +++ (MIC ≦ 4) | +++ (MIC ≦ 4) |

From patent US7498349B2, “Biaryl compounds having anti-infective activity” (Genesoft Pharmaceuticals, Inc., priority 2002, dated 2009)
